According to PubChem BioAssay (NCI):
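Cells were grown in 96-well plates and exposed to each compound for 48 hours at five concentrations; endpoints were interpolated linearly between bracketing concentrations, or set to the highest concentration if not reached. GI50 marks 50% less growth. TGI denotes the concentration required for complete inhibition of growth.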

Legend:
Experiment in all cases: NCI tumour cell line growth inhibition, 48 h
[1] = tested on: HT29 colon
[2] = tested on: MDA-MB-435
[3] = tested on: A549 NSCLC
[4] = tested on: SF-539 CNS
[5] = tested on: OVCAR-5 ovarian
[6] = tested on: COLO 205 colon
[7] = tested on: SN12C renal
[8] = tested on: DU-145 prostate
[9] = tested on: TK-10 renal
[10] = tested on: UACC-62 melanoma
[11] = tested on: NCI-H226 lung
[12] = tested on: OVCAR-8 ovarian
[13] = tested on: SK-MEL-28 melanoma
[14] = tested on: RPMI-8226 leukemia
[15] = tested on: SK-OV-3 ovarian
[16] = tested on: IGROV1 ovarian
[17] = tested on: SK-MEL-5 melanoma
[18] = tested on: M14 melanoma
[19] = tested on: OVCAR-3 ovarian
[20] = tested on: HCT-15 colon
[21] = tested on: HCT-116 colon
[22] = tested on: SNB-75 CNS
[23] = tested on: UACC-257 melanoma
[24] = tested on: CAKI-1 renal
[25] = tested on: SF-295 CNS
[26] = tested on: MALME-3M melanoma
[27] = tested on: SR leukemia
[28] = tested on: 786-0 renal
[29] = tested on: CCRF-CEM leukemia
[30] = tested on: HS 578T breast
[31] = tested on: T-47D breast
[32] = tested on: EKVX NSCLC
[33] = tested on: NCI/ADR-RES ovarian
[34] = tested on: MDA-MB-231 breast
[35] = tested on: HL-60(TB) leukemia
[36] = tested on: MOLT-4 leukemia
[37] = tested on: SF-268 CNS
[38] = tested on: KM12 colon
[39] = tested on: OVCAR-4 ovarian
[40] = tested on: HOP-62 NSCLC
[41] = tested on: U251 CNS
[42] = tested on: BT-549 breast
[43] = tested on: RXF 393 renal
[44] = tested on: PC-3 prostate
[45] = tested on: LOX IMVI melanoma
[46] = tested on: MCF7 breast
[47] = tested on: UO-31 renal
[48] = tested on: ACHN renal
[49] = tested on: K-562 leukemia
[50] = tested on: SW-620 colon
[51] = tested on: NCI-H460 lung
[52] = tested on: SNB-19 CNS
[53] = tested on: HOP-92 NSCLC
[54] = tested on: SK-MEL-2 melanoma
[55] = tested on: NCI-H23 lung
[56] = tested on: A498 renal
[57] = tested on: HCC-2998 colon

CCN(CC)c1ccc(N=O)cc1
GI50 [1]: 1.27 µM | TGI [1]: 4.3 µM | GI50 [2]: 2.72 µM | TGI [2]: 11.9 µM | GI50 [3]: 2.07 µM | TGI [3]: 5.56 µM | GI50 [4]: 2.96 µM | TGI [4]: 10.1 µM | GI50 [5]: 3.51 µM | TGI [5]: 14.3 µM | GI50 [6]: 1.98 µM | TGI [6]: 5.46 µM | GI50 [7]: 4.24 µM | TGI [7]: 17.2 µM | GI50 [8]: 6.43 µM | TGI [8]: 19.9 µM | GI50 [9]: 2.79 µM | TGI [9]: 10.8 µM | GI50 [10]: 6.66 µM | TGI [10]: 23.5 µM | GI50 [11]: 13.6 µM | TGI [11]: 38.4 µM | GI50 [12]: 3.14 µM | TGI [12]: 12.3 µM | GI50 [13]: 10.7 µM | TGI [13]: 23 µM | GI50 [14]: 2.09 µM | TGI [14]: 6.33 µM | GI50 [15]: 12.4 µM | TGI [15]: 29.3 µM | GI50 [16]: 2.05 µM | TGI [16]: 6.41 µM | GI50 [17]: 2.47 µM | TGI [17]: 7.38 µM | GI50 [18]: 3.47 µM | TGI [18]: 14.4 µM | GI50 [19]: 1.97 µM | TGI [19]: 4.61 µM | GI50 [20]: 2.26 µM | TGI [20]: 12.8 µM | GI50 [21]: 1.82 µM | TGI [21]: 4.71 µM | GI50 [22]: 3.47 µM | TGI [22]: 16.9 µM | GI50 [23]: 1.82 µM | TGI [23]: 4.15 µM | GI50 [24]: 1.29 µM | TGI [24]: 3.83 µM | GI50 [25]: 4.87 µM | TGI [25]: 20.5 µM | GI50 [26]: 1.59 µM | TGI [26]: 4.46 µM | GI50 [27]: 3.74 µM | TGI [27]: 46.2 µM | GI50 [28]: 7.46 µM | TGI [28]: 23.6 µM | GI50 [29]: 0.937 µM | TGI [29]: 13 µM | GI50 [30]: 10.2 µM | TGI [30]: > 100 µM | GI50 [31]: 2.89 µM | TGI [31]: 16.7 µM | GI50 [32]: 10.2 µM | TGI [32]: 26.8 µM | GI50 [33]: 2.33 µM | TGI [33]: 7 µM | GI50 [34]: 5.29 µM | TGI [34]: 20.9 µM | GI50 [35]: 2.85 µM | TGI [35]: 13.6 µM | GI50 [36]: 3.34 µM | TGI [36]: 30.1 µM | GI50 [37]: 5.53 µM | TGI [37]: 20.9 µM | GI50 [38]: 3.39 µM | TGI [38]: 13.1 µM | GI50 [39]: 3.26 µM | TGI [39]: 13.5 µM | GI50 [40]: 2.78 µM | TGI [40]: 11.8 µM | GI50 [41]: 1.14 µM | TGI [41]: 2.73 µM | GI50 [42]: 16.6 µM | TGI [42]: 30.5 µM | GI50 [43]: 2.46 µM | TGI [43]: 7.45 µM | GI50 [44]: 3.14 µM | TGI [44]: 12.1 µM | GI50 [45]: 1.67 µM | TGI [45]: 3.53 µM | GI50 [46]: 2.76 µM | TGI [46]: 11.8 µM | GI50 [47]: 1.21 µM | TGI [47]: 3.81 µM | GI50 [48]: 2.61 µM | TGI [48]: 11.1 µM | GI50 [49]: 2.23 µM | TGI [49]: 15.9 µM | GI50 [50]: 1.71 µM | TGI [50]: 5.53 µM | GI50 [51]: 5.12 µM | TGI [51]: 34.2 µM | GI50 [52]: 12.8 µM | TGI [52]: 29.9 µM | GI50 [53]: 2.18 µM | TGI [53]: 7.73 µM | GI50 [54]: 8.39 µM | TGI [54]: 22 µM | GI50 [55]: 1.95 µM | TGI [55]: 5.32 µM | GI50 [56]: 13.6 µM | TGI [56]: 38.5 µM

CN(C)c1ccc2nc3ccc(=N)cc-3sc2c1
GI50 [1]: 21.6 µM | TGI [1]: 63.5 µM | GI50 [2]: 1.75 µM | TGI [2]: 3.63 µM | GI50 [3]: 2.37 µM | TGI [3]: 13.9 µM | GI50 [4]: 2.2 µM | TGI [4]: 5.12 µM | GI50 [5]: 11 µM | TGI [5]: 29.4 µM | GI50 [6]: 2.73 µM | TGI [6]: 10.3 µM | GI50 [7]: 2.37 µM | TGI [7]: 8.06 µM | GI50 [8]: 14.3 µM | TGI [8]: 28.3 µM | GI50 [9]: 7.76 µM | TGI [9]: 31.4 µM | GI50 [10]: 2.66 µM | TGI [10]: 8.19 µM | GI50 [11]: 12.1 µM | TGI [11]: 28.8 µM | GI50 [12]: 2.14 µM | TGI [12]: 12 µM | GI50 [13]: 11.9 µM | TGI [13]: 27.7 µM | GI50 [14]: 1.21 µM | TGI [14]: 25.7 µM | GI50 [15]: 10.6 µM | TGI [15]: 38.7 µM | GI50 [57]: 8.39 µM | TGI [57]: > 100 µM | GI50 [16]: 8.59 µM | TGI [16]: 35.9 µM | GI50 [17]: 1.51 µM | TGI [17]: 5.78 µM | GI50 [18]: 3.9 µM | TGI [18]: 14.3 µM | GI50 [19]: 2.75 µM | TGI [19]: 12 µM | GI50 [20]: 3.07 µM | TGI [20]: 24.4 µM | GI50 [21]: 2.38 µM | TGI [21]: 12.5 µM | GI50 [22]: 3.29 µM | TGI [22]: 15.4 µM | GI50 [23]: 2.6 µM | TGI [23]: 9.71 µM | GI50 [24]: 4.21 µM | TGI [24]: 19.3 µM | GI50 [25]: 5.98 µM | TGI [25]: 21.2 µM | GI50 [26]: 2.26 µM | TGI [26]: 7.67 µM | GI50 [27]: 6.86 µM | TGI [27]: > 100 µM | GI50 [28]: 11.8 µM | TGI [28]: 28.7 µM | GI50 [29]: 2.15 µM | TGI [29]: > 100 µM | GI50 [30]: 11.4 µM | TGI [30]: 39.5 µM | GI50 [31]: 3.63 µM | TGI [31]: 21.3 µM | GI50 [33]: 3.11 µM | TGI [33]: 48.3 µM | GI50 [34]: 1.88 µM | TGI [34]: 11.8 µM | GI50 [35]: 7.53 µM | TGI [35]: 32.9 µM | GI50 [36]: 3.47 µM | TGI [36]: > 100 µM | GI50 [37]: 4.13 µM | TGI [37]: 20 µM | GI50 [38]: 3.67 µM | TGI [38]: 21.7 µM | GI50 [39]: 1.04 µM | TGI [39]: 2.47 µM | GI50 [40]: 6.87 µM | TGI [40]: 51.5 µM | GI50 [41]: 2.71 µM | TGI [41]: 10.5 µM | GI50 [42]: 7.74 µM | TGI [42]: 69 µM | GI50 [43]: 10.4 µM | TGI [43]: 26.8 µM | GI50 [44]: 1.03 µM | TGI [44]: 14.2 µM | GI50 [46]: 1.91 µM | TGI [46]: 6.29 µM | GI50 [47]: 11.6 µM | TGI [47]: 31.2 µM | GI50 [48]: 5.43 µM | TGI [48]: 39.8 µM | GI50 [49]: 2.61 µM | TGI [49]: > 100 µM | GI50 [50]: 2.83 µM | TGI [50]: 12.9 µM | GI50 [51]: 7.06 µM | TGI [51]: > 100 µM | GI50 [52]: 2.86 µM | TGI [52]: 21.1 µM | GI50 [53]: 3.79 µM | TGI [53]: 41.6 µM | GI50 [54]: 9.24 µM | TGI [54]: 26.8 µM | GI50 [55]: 3.3 µM | TGI [55]: 49.5 µM | GI50 [56]: 2.02 µM | TGI [56]: 39.5 µM
